In patent US20190304569A1, “DRUG TARGETING OF HUMAN INDOLEAMINE 2,3-DIOXYGENASE” (Albert Einstein College of Medicine, priority 2016, published 2019):

Target: human indoleamine 2,3-dioxygenase (hIDO) (Homo sapiens, UniProt P14902)
Test: hIDO enzyme activity in solution studies (binding to the Si site)
Assay type: biochemical
Conditions: for effect of binding to the Si site on the enzyme activity: solution data
Excerpt: The existence of the Si site in hIDO was first proposed by us in 2009 based on solution studies (8). […] It is notable that for decades MitoC has been widely used as a chemotherapy drug for several types of cancer (9).

Sequence of human indoleamine 2,3-dioxygenase (hIDO) (P14902 whole entry): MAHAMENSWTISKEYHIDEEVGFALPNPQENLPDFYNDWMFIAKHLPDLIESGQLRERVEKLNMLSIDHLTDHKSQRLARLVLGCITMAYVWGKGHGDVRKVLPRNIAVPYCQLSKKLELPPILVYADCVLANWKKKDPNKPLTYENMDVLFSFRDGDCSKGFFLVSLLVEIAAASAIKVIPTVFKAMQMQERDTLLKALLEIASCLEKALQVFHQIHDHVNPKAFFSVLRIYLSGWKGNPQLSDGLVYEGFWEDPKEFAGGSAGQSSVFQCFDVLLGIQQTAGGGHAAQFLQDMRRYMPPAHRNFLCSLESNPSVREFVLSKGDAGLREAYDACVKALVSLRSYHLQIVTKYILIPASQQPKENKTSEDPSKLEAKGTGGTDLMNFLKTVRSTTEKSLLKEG

| SMILES | effect of binding to the Si site on the enzyme activity | Ki (uncompetitive inhibition of hIDO by binding to the Si site) |
| --- | --- | --- |
| CO[C@@]12[C@H](COC(N)=O)C3=C(C(=O)C(C)=C(N)C3=O)N1C[C@@H]1N[C@@H]12 [MitoC, Mitomycin C] | inhibiting the enzyme activity | 25 µM |
| N[C@@H](Cc1c[nH]c2ccccc12)C(=O)O [Trp, tryptophan] | inhibits the enzyme activity |  |
